Read-outs that look alike come from different tables or passages of the source.
Assays:
dopamine D-1 receptor = biological target: T1, dopamine D-1 receptor (Rattus norvegicus, UniProt P18901); assay: Competitive inhibition assay vs. 3H-SCH 23390 (dopamine D-1 receptor binding); design: species or system Male Sprague-Dawley rat (striatal tissue)
T1 construct: Striatal tissue was excised, pooled, and homogenized; tissue Charles River Breeding Laboratories, Mass; (animals); host or cells: striatum of male Sprague-Dawley rats, washed membrane pellet
T1 sequence (P18901 whole entry): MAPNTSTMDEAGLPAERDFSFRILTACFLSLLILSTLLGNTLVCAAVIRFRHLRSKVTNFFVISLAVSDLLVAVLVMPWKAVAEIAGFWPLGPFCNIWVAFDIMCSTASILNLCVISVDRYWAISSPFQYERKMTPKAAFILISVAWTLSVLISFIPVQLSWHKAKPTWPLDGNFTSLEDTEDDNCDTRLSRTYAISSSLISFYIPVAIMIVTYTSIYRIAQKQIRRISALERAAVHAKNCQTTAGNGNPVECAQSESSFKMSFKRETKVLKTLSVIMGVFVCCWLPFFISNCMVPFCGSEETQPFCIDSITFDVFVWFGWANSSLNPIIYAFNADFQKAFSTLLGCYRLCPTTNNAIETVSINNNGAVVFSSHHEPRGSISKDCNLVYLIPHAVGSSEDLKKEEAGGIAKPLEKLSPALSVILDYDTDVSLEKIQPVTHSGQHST
Method: (§1) Many compounds capable of effecting reproducible physiological changes in neural tissues are believed to operate by binding at one or more receptor sites.
(§2) Tritiated SCH 23390 and tritiated spiperone (a potent D-2 ligand) were obtained as described in the Billard et al. reference supra and serially diluted in 0.05 M Tris buffer, pH 7.4, as required. A compound of the invention is diluted in 0.05 M Tris buffer, pH 7.4, as required.
(§3) Male Sprague-Dawley rats (200 to 250 g) from Charles River Breeding Laboratories, Mass. were used to obtain brain tissue. The rats were humanely sacrificed and their brains removed and placed on ice. Striatal tissue was excised, pooled, and homogenized (Brinkman Polytron, 10 sec) in 100 volumes (w/v) of ice cold 50 mM Tris buffer, pH 7.4 (at 25° C.). The homogenate was centrifuged at 20,000 xg for 10 min. The resultant pellet was rehomogenized in Tris buffer and centrifuged again. The final pellet was resuspended in 50 mM Tris buffer pH 7.4 containing 120 mM NaCl, 5 mM KCl, 2 mM CaCl2, and 1 mM MgCl2.
(§4) Polypropylene incubation tubes received 100 μl of the individual test compounds at various concentrations dissolved or suspended in 0.05 M Tris, pH 7.4 containing 4 mg/ml methylcellulose, 100 μl of a solution of ^3 H-SCH 23390 in Tris buffer (final reaction mixture concentration =0.3 nM) or 100 μl of a solution of 3H-spiperone in Tris buffer (final concentration =0.2 nM) and 800 μl of tissue suspension (ca. 3 mg/assay). Tubes were incubated at 37° C. for 15 minutes and rapidly vacuum filtered through Whatman GF/B filters and rinsed 4 times with 4 ml of ice cold 50 mM Tris buffer, pH 7.4. The filters were transferred to scintillation vials, equilibated with 10 ml of scintillant (Scintosol, Isolab, Inc.) for 16 hours at 25° C. and the radioactivity determined in a liquid scintillation counter. Ki values were determined as described by Billard et al. using the relationship Ki =IC50 /(1+([L]/KD)) wherein IC50 =concentration of test drug necessary to displace 50% of specifically bound ^3 H-Sch 23390, [L]=concentration of radioligand used in the assay, and KD =dissociation constant.

D-2 receptor = biological target: T2, D-2 receptor (Rattus norvegicus, UniProt P61169); assay: Competitive inhibition assay vs. 3H-spiperone (D-2 receptor binding); design: species or system Male Sprague-Dawley rat (striatal tissue); conditions: rat striatal homogenate, 0.2 nM 3H-spiperone, pH 7.4, 37° C., 15 min
T2 construct: Striatal tissue was excised, pooled, and homogenized; tissue Charles River Breeding Laboratories, Mass; (animals); host or cells: striatum of male Sprague-Dawley rats, washed membrane pellet
T2 sequence (P61169 whole entry): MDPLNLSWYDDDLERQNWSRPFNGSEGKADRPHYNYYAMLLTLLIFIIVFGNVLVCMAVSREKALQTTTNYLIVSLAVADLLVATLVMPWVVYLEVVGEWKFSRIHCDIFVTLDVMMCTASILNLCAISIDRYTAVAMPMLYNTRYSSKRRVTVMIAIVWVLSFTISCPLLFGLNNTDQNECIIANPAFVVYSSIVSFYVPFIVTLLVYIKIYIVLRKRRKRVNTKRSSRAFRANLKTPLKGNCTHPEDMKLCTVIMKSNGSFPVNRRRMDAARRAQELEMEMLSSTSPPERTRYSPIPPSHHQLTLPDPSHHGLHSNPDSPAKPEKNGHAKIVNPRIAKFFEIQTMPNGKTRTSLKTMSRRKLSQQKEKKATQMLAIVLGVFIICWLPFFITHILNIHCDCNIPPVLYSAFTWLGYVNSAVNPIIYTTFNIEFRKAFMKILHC
Method: as §1, §2, §3, §4

[1] = system: conditioned avoidance response (CAR); assay: Conditioned avoidance suppression in rats (Rat CAR); format: in vivo; conditions: lowest dose that significantly (P<0.05) reduced avoidance responding, read-out: Rat CAR, minimal effective dose (MED)
Method: N. Y. Acad. Sci. 66, 740 (1957)}. A series of experiments was carried out to assess the ability of the compounds of this invention to suppress the conditioned avoidance response (CAR) in rats.
Rats were required to jump onto a platform located 6.75 inches (17.15 cm) above the grid floor of an experimental chamber in response to a 5-second tone to avoid a 10-second foot shock (0.6 ma). Each experimental session consisted of 20 such trials presented at 30-second intervals. A correct CAR is scored whenever the rat jumps onto the platform during the tone (prior to foot shock). An escape response is scored when the rat jumps onto the platform during a shock. A response failure is defined as the lack of an escape response during the 10-second shock period.
Groups of 6-8 rats were trained in two consecutive days (total of 40 trials). Rats that reached criterion on day 2 (correct CARs on 16 or more of the 20 trials) were treated with either a test drug or vehicle on day 3. Suppression of CAR was analyzed statistically using Student's t-test comparing the performances of drug-treated to vehicle-treated rats.

[2] = rat striatal homogenate, 0.3 nM 3H-SCH 23390, pH 7.4, 37° C., 15 min, read-out: Ki vs. 3H-SCH 23390

SMILES: COC1CN(C)CCc2cc(Cl)c(O)cc21 (centres unmarked) [Compound 1, 8-chloro-5-methoxy-3-methyl-2,3,4,5-tetrahydro-lH-3-benzazepine-7-ol]
- Ki (dopamine D-1 receptor): 54 nM
- Ki (D-2 receptor): 5600 nM
- minimal effective dose ([1]; po): > 30 mg/kg
- minimal effective dose ([1]; sc): 1 mg/kg

SMILES: CCOC1CN(C)CCc2cc(Cl)c(O)cc21 (centres unmarked) [Compound 2, 8-chloro-5-ethoxy-3-methyl-2,3,4,5-tetrahydro-lH-3-benzazepine-7-ol]
- Ki (dopamine D-1 receptor): 34 nM
- Ki (D-2 receptor): 7720 nM
- minimal effective dose ([1]; po): > 30 mg/kg
- minimal effective dose ([1]; sc): 1 mg/kg

SMILES: CCSC1CNCCc2cc(Cl)c(O)cc21 (centres unmarked) [Compound 3]
- Ki (dopamine D-1 receptor; [2]): 380 nM
- Ki (D-2 receptor): 6500 nM
- minimal effective dose ([1]; sc): < 10 mg/kg

SMILES: CN1CCc2cc(Cl)c(O)cc2C(Oc2ccccc2)C1 (centres unmarked) [Compound 4, 8-chloro-3-methyl-5-phenoxy-2,3,4,5-tetrahydro-lH-3-benzazepin-7-ol]
- Ki (dopamine D-1 receptor; [2]): 83 nM
- Ki (D-2 receptor): 610 nM
- minimal effective dose ([1]; po): 10 mg/kg

SMILES: CN1CCc2cc(Cl)c(O)cc2C(Sc2ccccc2)C1 (centres unmarked) [Compound 5, 8-chloro-3-methyl-5-phenylthio-2,3,4,5-tetrahydro-lH-3-benzazepin-7-ol]
- Ki (dopamine D-1 receptor; [2]): 33 nM
- Ki (D-2 receptor): 402 nM
- minimal effective dose ([1]; po): > 30 mg/kg
- minimal effective dose ([1]; sc): > 30 mg/kg

SMILES: CN1CCc2cc(Cl)c(O)cc2C(N2CCCCC2)C1 (centres unmarked) [Compound 6, 8-chloro-3-methyl-5-(1-piperidinyl)-2,3,4,5-tetrahydro-lH-3-benzazepine-7-ol]
- Ki (dopamine D-1 receptor; [2]): 64 nM
- Ki (D-2 receptor): 7500 nM
- minimal effective dose ([1]; po): 30 mg/kg
- minimal effective dose ([1]; sc): 3 mg/kg

SMILES: CN1CCc2cc(Cl)c(O)cc2C(n2ccnc2)C1 (centres unmarked) [Compound 7]
- minimal effective dose ([1]; po): > 30 mg/kg
- minimal effective dose ([1]; sc): > 10 mg/kg

SMILES: CN1CCc2cc(Cl)c(O)cc2C(C2CCCCC2)C1 (centres unmarked) [Compound 8, 8-chloro-5-cyclohexyl-3-methyl-2,3,4,5-tetrahydro-lH-3-benzazepine-7-ol]
- Ki (dopamine D-1 receptor; [2]): 10 nM
- Ki (D-2 receptor): 570 nM
- minimal effective dose ([1]; po): 30 mg/kg
- minimal effective dose ([1]; sc): ≤ 1 mg/kg

SMILES: CN1CCc2cc(Cl)c(O)cc2C(OCC(F)(F)F)C1 (centres unmarked) [Compound 9, 8-chloro-5-(2,2,2-trifluoroethoxy)-3-methyl-2,3,4,5-tetrahydro-lH-3-benzazepine-7-ol]
- Ki (dopamine D-1 receptor; [2]): 59 nM
- Ki (D-2 receptor): 14900 nM
- minimal effective dose ([1]; po): > 30 mg/kg
- minimal effective dose ([1]; sc): 1 mg/kg

SMILES: CN1CCc2cc(Cl)c(O)cc2C(OCc2ccccc2)C1 (centres unmarked) [Compound 10, 8-chloro-5-benzyloxy-3-methyl-2,3,4,5-tetrahydro-lH-3-benzazepine-7-ol]
- Ki (dopamine D-1 receptor; [2]): 30 nM
- Ki (D-2 receptor): 2300 nM
- minimal effective dose ([1]; po): > 30 mg/kg
- minimal effective dose ([1]; sc): 3 mg/kg

SMILES: CN1CCc2cc(Cl)c(O)cc2C(OCCc2ccccc2)C1 (centres unmarked) [Compound 11, 8-chloro-5-(phenethyloxy)-3-methyl-2,3,4,5-tetrahydro-lH-3-benzazepine-7-ol]
- Ki (dopamine D-1 receptor; [2]): 8 nM
- Ki (D-2 receptor): 1020 nM
- minimal effective dose ([1]; po): > 30 mg/kg
- minimal effective dose ([1]; sc): 1 mg/kg

SMILES: CN1CCc2cc(Cl)c(O)cc2C(C2CCCC2)C1 (centres unmarked) [Compound 12]
- Ki (dopamine D-1 receptor; [2]): 21 nM
- Ki (D-2 receptor): 1540 nM
- minimal effective dose ([1]; po): > 30 mg/kg
- minimal effective dose ([1]; sc): 1 mg/kg

SMILES: CN1CCc2cc(Cl)c(O)cc2C(n2cccc2)C1 (centres unmarked) [Compound 13, 8-chloro-5-(1-pyrrolyl)-3-methyl-2,3,4,5-tetrahydro-lH-3-benzazepine-7-ol]
- Ki (dopamine D-1 receptor; [2]): 11 nM
- Ki (D-2 receptor): 16100 nM
- minimal effective dose ([1]; po): > 30 mg/kg
- minimal effective dose ([1]; sc): 0.3 mg/kg

SMILES: C=CCC1CN(C)CCc2cc(Cl)c(O)cc21 (centres unmarked) [Compound 14, 8-chloro-5-allyl-3-methyl-2,3,4,5-tetrahydro-lH-3-benzazepine-7-ol]
- Ki (dopamine D-1 receptor; [2]): 6 nM
- Ki (D-2 receptor): 170 nM
- minimal effective dose ([1]; po): > 30 mg/kg
- minimal effective dose ([1]; sc): 0.1 mg/kg

SMILES: CN1CCc2cc(Cl)c(O)cc2C2(CCCC2)C1 [Compound 15, 8-chloro-7-hydroxy-3-methyl-2,3,4,5-tetrahydrospiro[lH-3-benzazepine-5,5'-cyclopentane]]
- Ki (dopamine D-1 receptor): 19 nM
- Ki (D-2 receptor): 860 nM
- minimal effective dose ([1]; po): > 30 mg/kg
- minimal effective dose ([1]; sc): 1 mg/kg

SMILES: CCOC(=O)Oc1cc2c(cc1Cl)CCN(C)CC2C1CCCCC1 (centres unmarked) [Compound 16, 8-chloro-7-(ethoxy-formyloxy)-5-cyclohexyl-3-methyl-2,3,4,5-tetrahydro-lH-3-benzazepine]
- Ki (dopamine D-1 receptor; [2]): 133 nM
- Ki (D-2 receptor): 3330 nM
- minimal effective dose ([1]; po): > 30 mg/kg
- minimal effective dose ([1]; sc): < 3 mg/kg

SMILES: C=CCC1CN(C)CCc2cc(Cl)c(OC(=O)C(C)C)cc21 (centres unmarked) [Compound 17, 8-chloro-7-(isopropyl-formyloxy)-5-allyl-3-methyl-2,3,4,5-tetrahydro-lH-3-benzazepine]
- Ki (dopamine D-1 receptor; [2]): 84 nM
- Ki (D-2 receptor): 3450 nM
- minimal effective dose ([1]; po): > 30 mg/kg
- minimal effective dose ([1]; sc): 0.3 mg/kg

SMILES: C=CCC1CN(C)CCc2cc(Cl)c(OC(=O)COC)cc21 (centres unmarked) [Compound 18, 8-chloro-7-(methoxy-acetoxy)-5-allyl-3-methyl-2,3,4,5-tetrahydro-lH-3-benzazepine]
- Ki (dopamine D-1 receptor; [2]): 10.3 nM
- Ki (D-2 receptor): 566 nM
- minimal effective dose ([1]; po): 100 mg/kg
- minimal effective dose ([1]; sc): < 0.3 mg/kg

SMILES: CC(=O)Oc1cc2c(cc1Cl)CCN(C)CC2CC=C(C)C (centres unmarked) [Compound 19, 8-chloro-7-acetoxy-5-(3-methyl-2-butenyl)-3-methyl-2,3,4,5-tetrahydro-lH-3-benzazepine]
- Ki (dopamine D-1 receptor; [2]): 17 nM
- Ki (D-2 receptor): 955 nM
- minimal effective dose ([1]; po): > 30 mg/kg
- minimal effective dose ([1]; sc): < 1 mg/kg

SMILES: C=CCC1CN(C)CCc2cc(Cl)c(OCOC(=O)C(C)(C)C)cc21 (centres unmarked) [Compound 20, 8-chloro-7-(t-butyryloxy-methoxy)-5-allyl-3-methyl-2,3,4,5-tetrahydro-lH-3-benzazepine]
- Ki (dopamine D-1 receptor; [2]): 240 nM
- Ki (D-2 receptor): 2620 nM
- minimal effective dose ([1]; po): > 30 mg/kg
- minimal effective dose ([1]; sc): 0.1 mg/kg

SMILES: CN1CCc2cc(Cl)c(O)cc2C(C2C=CCCC2)C1 (centres unmarked) [HO CH3 2-cyclohexenyl H, 8-chloro-5-(2-cyclohexenyl)-3-methyl-2,3,4,5-tetrahydro-lH-3-benzazepine-7-ol]
- Ki (dopamine D-1 receptor; [2]): 1.1 nM
- Ki (D-2 receptor): 135 nM

SMILES: CN(C)CCCC1CN(C)CCc2cc(Cl)c(O)cc21 (centres unmarked) [HO CH3 (CH2)3 N(CH3)2 H, 8-chloro-5-(N,N-dimethylaminopropyl)-3-methyl-2,3,4,5-tetrahydro-lH-3-benzazepine-7-ol]
- Ki (dopamine D-1 receptor; [2]): 1100 nM
- Ki (D-2 receptor): > 100000 nM

SMILES: CN1CCc2cc(Cl)c(O)cc2C(=Cc2ccccc2)C1 [HO CH3 CHPh]
- Ki (dopamine D-1 receptor; [2]): 73 nM
- Ki (D-2 receptor): 705 nM

SMILES: CCSC1CN(C)CCc2cc(Cl)c(O)cc21 (centres unmarked) [HO CH3 SC2 H5 H, 8-chloro-5-ethylthio-3-methyl-2,3,4,5-tetrahydro-lH-3-benzazepine-7-ol]
- Ki (dopamine D-1 receptor; [2]): 33 nM
- Ki (D-2 receptor): 2610 nM

SMILES: CN1CCc2cc(Cl)c(O)cc2C(OC2CCCCC2)C1 (centres unmarked) [HO CH3 cyclohexyloxy H, 8-chloro-5-cyclohexyloxy-3-methyl-2,3,4,5-tetrahydro-lH-3-benzazepine-7-ol]
- Ki (dopamine D-1 receptor; [2]): 38 nM
- Ki (D-2 receptor): 10100 nM

— patent US5015639A, “Substituted benzazepines, their preparation and pharmaceutical compositions containing them” (Schering Corporation, priority 1989, dated 1991)
